US20120094939A1, “ANTI-VIRAL COMPOUNDS, COMPOSITIONS AND METHODS” (priority 2007, published 2012)
Read-outs that look alike come from different tables or passages of the source.

Experiments:
[1] = tested on: Huh7/Rep-Feo HCV replicon; assay: Optimization of Huh7/Rep-Feo cells for 96-/384-well plates with PEG-IFN as positive control; format: cell-based, Hepatitis C virus (strain HCV—N, genotype 1b); settings: 96-well plates; measurements at 24, 48, 72 hours
Procedure: Optimization of Huh-7/Rep-Feo Cells for the 384-Well Plate Format. The Huh7/Rep-Feo cells were first optimized for the 96-well plate format (FIG. 9). […] Cells were seeded at densities of 5000 and 10,000 cells/well in 100_L of medium in 96-well plates. The cells were allowed to attach overnight (approximately 24 hours) before addition of PEG-IFN at various concentrations (day 0). The plates were then incubated further, and measurements were taken at 24, 48, and 72 hours. At each time point, the plates were equilibrated at room temperature, an equal volume of Bright-Glo reagent (Promega, Madison, Wis.) was added, and the plates were read in a LumiCount (Packard BioScience Company, Downers Grove, Ill.) luminometer. […] Results were expressed as the mean of three replicate wells. […]
Optimization of Huh-7/Rep-Feo cells for the 384-well plate format: Cells were propagated in Dulbecco's Modified Eagle's medium (DMEM) containing 10% fetal bovine serum (FBS) supplemented with 1% penicillin-streptomycin, and 500 μg of Geneticin (Invitrogen Corp., Carlsbad, Calif.)/ml. […] At each time point, the plates were equilibrated at room temperature, an equal volume of Bright-Glo reagent (Promega, Madison, Wis.) was added, and the plates were read in a LumiCount™ (Packard BioScience Company, Downers Grove, Ill.) luminometer. […] Results were expressed as the mean of three replicate wells. […]

[2] = tested on: Huh7/Rep-Feo HCV replicon (HCV RNA replication); format: cell-based, Hepatitis C virus (strain HCV—N, genotype 1b)
Description: Development of the Huh7/Rep-Feo replicon assay. […] This replicon was derived from a chimpanzee infectious clone (strain HCV—N, genotype 1b). In this replicon, the structural genes have been replaced by a reporter gene. The chimeric reporter gene Feo encodes the firefly luciferase protein fused in-frame with neomycin phosphotransferase. This Huh7/Rep-Feo cell supports high levels of autonomous HCV RNA replication because it was derived from the HCV—N strain, which carries an adaptive mutation in NSSA that confers highlevel replication in tissue culture. Furthermore, the level of luciferase correlates well with levels of HCV RNA production, so that luciferase can be used as a reliable surrogate marker for HCV replication. The use of luciferase as a reporter permits quantitative and highthroughput detection of HCV replication levels. The specific use of firefly luciferase makes this replicon especially well-suited for automation, because the luciferase reagent can be added directly to the cell culture system prior to signal detection without the need for cell lysis, washing, or aspiration.
HCV Replicon System-Primary Screening. […] Briefly, this replicon harbors a subgenomic HCV genotype 1b sequence, fused to firefly luciferase, stably replicating under neomycin selection. Cells were propagated in Dulbecco's Modified Eagle's medium (DMEM) containing 10% fetal bovine serum (FBS) supplemented with 1% penicillin-streptomycin, and 500 μg of Geneticin (Invitrogen Corp., Carlsbad, Calif.)/mL. Cells were cultured in a 37° C., 5% CO2-humidified incubator for all experiments. To decrease day-today variability in the assay, a large homogenous population of subconfluent cells was passaged so that a similar lot of cells could be used throughout the HTS assay.
Primary Screening-HTS. Information about the library of known bioactive compounds that was screened and the general automated HTS protocol is available at http://www.broad.harvard.edu/chembio/index.html (see FIG. 10 for list of primary HTS with known bioactives library). Based on the results of optimization experiments in the 384-well plate format, the general HTS protocol was adapted as follows. Unless otherwise indicated, cells were incubated at all times in a humidified environment with 5% CO2 at 37° C. The assay was initiated by plating 30 μL of medium containing 2000 cells/well into white 384-well opaque-bottom plates (Nunc, Rochester, N.Y.) using an automated plate filler (Bio-Tek uFiller; Winsooki, Vt.) and allowing the cells to adhere for 24 hours. One hundred nL of compound stock solutions in DMSO was transferred from stock plates into the 384-well assay plates using an automated pin-based compound transfer robot (CyBio CyBi-Well vario; Woburn, Mass.). The final compound concentration in each well was estimated to be approximately 10-50 μM, with most compounds at 33 μM. The wells contained 0.33% DMSO by volume. The cells were then incubated for another 48 hours. The luminescent signal from each plate was detected using an automated plate reader (Perkin-Elmer Envision 1; Wellesley, Mass.). This screen was performed in duplicate. For negative controls, entire DMSO-treated control plates were employed, in addition to DMSO-only control wells that were incorporated into each compound assay plate. The cells were assayed for luciferase activity using the Bright-Glo Luciferase assay system (Promega), following the manufacturer's instructions. As a counter-screen, cell viability was assessed using the CellTiterGlo Luminescent cell viability assay (Promega) following the manufacturer's instructions.
Computational Data Analysis-Primary Screening. For each replicate, a mock-treatment distribution based on the total population of mock (DMSO) controls in that replicate was built (FIG. 11).

OR6 cells = assay: Secondary assay cell viability (CellTiter-Glo); settings: 48 hours
Procedure: (§1) Secondary Assays-Hit Validation. Several hits from primary HTS, as well as functionally related compounds, were purchased from Sigma (St. Louis, Mo.), Calbiochem (San Diego, Calif.), and Microsource (Gaylordsville, Conn.). […] Ten mM of stock solutions of the individual compounds to be tested was prepared in the appropriate solvent (DMSO, ethanol, or H2O, according to the manufacturer's information) and stored at −20° C. Cells were seeded into 96-well plates at a density of 2000 cells/well in 100 μL of medium. The cells were incubated for 24 hours at 37° C. to obtain the optimal level of adherence. Solutions of candidate hit compounds were added to wells to achieve final concentrations of 0.1, 1, 10, 50, and 100 μM. The final concentration of DMSO or ethanol in every well was 1% or less by volume. Mock solutions were used as a negative control. PEG-IFN and ribavirin were used as positive controls at various concentrations, alone and in combination. The plates were then incubated at 37° C. with 5% CO2 for 48 hours before they were analyzed. Luminescent signal was generated using the Renilla luciferase assay kit (Promega) according to the manufacturer's instructions. Signal was then detected using a LumiCount (Packard BioScience Company) luminometer. Cell viability was assessed using CellTiter-Glo (Promega), following the manufacturer's instructions. All experiments were performed in triplicate.
(§2) Secondary Assays-Data Analysis. Values were presented as a percentage of mock treated control, which was arbitrarily set at 100%. Data were expressed as the mean (±) SD. […] Synergy calculations were performed using CalcuSyn (Biosoft; Cambridge, England).
(§3) Secondary Assays—Hit Validation: 10 mM of stock solutions of the individual compounds to be tested were prepared in DMSO and stored at −20° C. Cells were seeded into 96-well plates at a density of 2,000 cells/well in 100 μl of medium. The cells were incubated for 24 hours at 37° C. to obtain the optimal level of adherence. Solutions of candidate hit compounds were added to wells to achieve varying final concentrations between 0.01 and 100 μM. The final concentration of DMSO or ethanol in every well was 1% or less by volume. Mock solutions were used as a negative control. Peginterferon-alfa-2b (PEG-Intron; Schering Corp.; Kenilworth, N.J.) and ribavirin (Sigma; St. Louis, Mo.) were used as positive controls at various concentrations, alone and in combination. The plates were then incubated at 37° C. with 5% CO2 for 48 hours before they were analyzed. Luminescent signal was generated using the Renilla luciferase assay kit (Promega; Madison, Wis.) according to the manufacturer's instructions. Signal was then detected using a LumiCount™ (Packard BioScience Company; Downers Grove, Ill.) luminometer. Cell viability was assessed using CellTiter-Glo (Promega; Madison, Wis.), following the manufacturer's instructions. All experiments were performed in triplicate. Values were presented as a percentage of mock treated control, which was arbitrarily set at 100%. Data were expressed as the mean±SD.
Secondary Assays—Data Analysis: Values were presented as a percentage of mock treated control, which was arbitrarily set at 100%. Data were expressed as the mean±SD.

[3] = tested on: OR6 cells harboring full-length genotype 1b HCV replicon ORN/C-5B/KE (HCV RNA replication); assay: microbe, parasite or virus in culture; format: cell-based, Hepatitis C virus (strain HCV—O; settings: 48 hours; for antiviral activity (in words): OR6 full-length replicon
Description: HCV Replicon System-Secondary Assays. For validation, OR6 cells stably harboring the full-length genotype 1 replicon, ORN/C-5B/KE9 were used to examine compound activity in a more authentic viral polyprotein context. This replicon was derived from the 1B-2 strain (strain HCV—O, genotype 1b), in which the Renilla luciferase gene is introduced as a fusion protein with neomycin to facilitate the monitoring of HCV replication. This construct contains a tissue culture adaptive mutation in the NS3 region. Cells were cultured in an identical manner to the Huh7/Rep-Feo cells.
as §1, §2
HCV Replicon System—Secondary Assays: For replicon validation, OR6 cells stably harboring the full-length genotype 1 replicon, ORN/C-5B/KE were used (Burke J. Am. Chem. Soc. (2004) 126:14095-14104). This replicon was derived from the 1B-2 strain (strain HCV—O, genotype 1b), in which the Renilla luciferase gene is introduced as a fusion protein with the Neomycin resistance cassette to facilitate the monitoring of HCV replication. This construct contains a tissue culture adaptive mutation in the NS3 region. Cells were cultured in an identical manner to the Huh7/Rep-Feo cells.
as §3, with “luminometer.” for “luminometer. Cell viability was assessed using CellTiter-Glo (Promega; Madison, Wis.), following the manufacturer's instructions. All experiments were performed in triplicate. Values were presented as a percentage of mock treated control, which was arbitrarily set at 100%. Data were expressed as the mean±SD.”

## Peginterferon-alfa-2b [PEG-IFN]
[1]
  antiviral activity over time (in words): progressively increased over time

## Clc1cccc(Nc2nnc(-c3ccccc3)c3ccccc23)c1 [MY-5445]
[2]; known bioactives library, approximately 10-50 μM, most at 33 μM
  primary screen hit result (in words): Antiviral
OR6 cells
  cytotoxicity (in words): significant cytotoxicity
[3]
  antiviral activity (in words): decreased the luciferase signal in a dose-related manner

## CC[C@H](C)C(=O)O[C@H]1CCC=C2C=C[C@H](C)[C@H](CC[C@@H]3C[C@@H](O)CC(=O)O3)[C@H]21 [Mevastatin, mevastatin]
OR6 cells
  cytotoxicity (in words): not cytotoxic
[3]
  antiviral activity (in words): weakly inhibitory

## O=C1[C@@]2(CO)C=C(I)C(CC2c2ccccc2)[C@@]12CO2 (some centres unmarked) [SM_A14B5]
OR6 cells
  concentrations at which cytotoxic effects were exhibited: above 30 μM
[3]; Hepatitis C virus, OR6, 48 h, read-out: IC50 (HCV RNA replication, luciferase), OR6 full-length genotype 1b replicon
  IC50: ~3.5 µM

## C[S+]([O-])c1ccc(-c2nc(-c3ccncc3)c(-c3ccc(F)cc3)[nH]2)cc1 (centres unmarked) [SB 203580]
[2]
  primary screen hit result (in words): Antiviral
OR6 cells
  cytotoxicity (in words): cytotoxicity at higher concentrations
[3]
  antiviral activity (in words): antiviral activity at a concentration of 10 μM
